Measurements published in the supplement of paper PMC10307832.

Legend:
Assay in all cases: relative viability (nuclei count vs DMSO), 5 days (fraction); higher = more cells survive
LXF-289 = test system: LXF-289
How it was run: (§1)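 Five library-drug doses in √10 steps were combined with a fixed anchor-drug dose, or a single drug was given alone, by pin tool to lung cancer cell lines in 1536-well plates the day after seeding. Nuclei were stained and counted after 5 days. Relative viability is the nuclei count in treated wells over that in vehicle wells, taken as the median of duplicate plates.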

NCI-H647 = test system: NCI-H647
How it was run: as §1

NCI-H3122 = test system: NCI-H3122
How it was run: as §1

NCI-H2228 = test system: NCI-H2228
How it was run: as §1

NCI-H1395 = test system: NCI-H1395
How it was run: as §1

NCI-H727 = test system: NCI-H727
How it was run: as §1

201T = test system: 201T
How it was run: as §1

NCI-H1437 = test system: NCI-H1437
How it was run: as §1

NCI-H1944 = test system: NCI-H1944
How it was run: as §1

HCC-827 = test system: HCC-827
How it was run: as §1

NCI-H1792 = test system: NCI-H1792
How it was run: as §1

NCI-H2405 = test system: NCI-H2405
How it was run: as §1

NCI-H322M = test system: NCI-H322M
How it was run: as §1

CAL-12T = test system: CAL-12T
How it was run: as §1

RERF-LC-KJ = test system: RERF-LC-KJ
How it was run: as §1

NCI-H1793 = test system: NCI-H1793
How it was run: as §1

LCLC-97TM1 = test system: LCLC-97TM1
How it was run: as §1

BEN = test system: BEN
How it was run: as §1

LCLC-103H = test system: LCLC-103H
How it was run: as §1

SK-LU-1 = test system: SK-LU-1
How it was run: as §1

NCI-H2087 = test system: NCI-H2087
How it was run: as §1

COc1cc2nccc(Oc3ccc(NC(=O)Nc4cc(C)on4)c(Cl)c3)c2cc1OC [Tivozanib] + C[C@]1(O)C[C@@H](c2nc(-c3ccc4ccc(-c5ccccc5)nc4c3)c3c(N)nccn32)C1 [Linsitinib] (partner 1 µM)
relative viability (LXF-289; first compound 0.005 µM): 0.974 | relative viability (LXF-289; first compound 0.01581 µM): 0.929 | relative viability (LXF-289; first compound 0.05 µM): 0.945 | relative viability (LXF-289; first compound 0.1581 µM): 1.02 | relative viability (LXF-289; first compound 0.5 µM): 0.983 | relative viability (NCI-H647; first compound 0.005 µM): 1.08 | relative viability (NCI-H647; first compound 0.01581 µM): 1.09 | relative viability (NCI-H647; first compound 0.05 µM): 1.26 | relative viability (NCI-H647; first compound 0.1581 µM): 1.21 | relative viability (NCI-H647; first compound 0.5 µM): 1.18 | relative viability (NCI-H3122; first compound 0.005 µM): 1.1 | relative viability (NCI-H3122; first compound 0.01581 µM): 1.04 | relative viability (NCI-H3122; first compound 0.05 µM): 1 | relative viability (NCI-H3122; first compound 0.1581 µM): 1.19 | relative viability (NCI-H3122; first compound 0.5 µM): 1.06 | relative viability (NCI-H2228; first compound 0.005 µM): 0.504 | relative viability (NCI-H2228; first compound 0.01581 µM): 0.683 | relative viability (NCI-H2228; first compound 0.05 µM): 0.697 | relative viability (NCI-H2228; first compound 0.1581 µM): 0.569 | relative viability (NCI-H2228; first compound 0.5 µM): 0.868 | relative viability (NCI-H1395; first compound 0.005 µM): 0.99 | relative viability (NCI-H1395; first compound 0.01581 µM): 1.1 | relative viability (NCI-H1395; first compound 0.05 µM): 1.26 | relative viability (NCI-H1395; first compound 0.1581 µM): 1.09 | relative viability (NCI-H1395; first compound 0.5 µM): 0.827 | relative viability (NCI-H727; first compound 0.005 µM): 0.304 | relative viability (NCI-H727; first compound 0.01581 µM): 0.256 | relative viability (NCI-H727; first compound 0.05 µM): 0.244 | relative viability (NCI-H727; first compound 0.5 µM): 0.357 | relative viability (201T; first compound 0.005 µM): 1.1 | relative viability (201T; first compound 0.01581 µM): 0.984 | relative viability (201T; first compound 0.05 µM): 1.06 | relative viability (201T; first compound 0.1581 µM): 0.937 | relative viability (201T; first compound 0.5 µM): 1.02 | relative viability (NCI-H1437; first compound 0.005 µM): 1.02 | relative viability (NCI-H1437; first compound 0.01581 µM): 0.989 | relative viability (NCI-H1437; first compound 0.05 µM): 0.969 | relative viability (NCI-H1437; first compound 0.1581 µM): 0.947 | relative viability (NCI-H1437; first compound 0.5 µM): 1 | relative viability (NCI-H1944; first compound 0.005 µM): 1.14 | relative viability (NCI-H1944; first compound 0.01581 µM): 1.2 | relative viability (NCI-H1944; first compound 0.05 µM): 1.29 | relative viability (NCI-H1944; first compound 0.1581 µM): 1.1 | relative viability (NCI-H1944; first compound 0.5 µM): 1.21 | relative viability (HCC-827; first compound 0.005 µM): 0.969 | relative viability (HCC-827; first compound 0.01581 µM): 0.942 | relative viability (HCC-827; first compound 0.05 µM): 0.944 | relative viability (HCC-827; first compound 0.1581 µM): 1.04 | relative viability (HCC-827; first compound 0.5 µM): 0.965 | relative viability (NCI-H1792; first compound 0.005 µM): 0.535 | relative viability (NCI-H1792; first compound 0.01581 µM): 0.581 | relative viability (NCI-H1792; first compound 0.05 µM): 0.534 | relative viability (NCI-H1792; first compound 0.1581 µM): 0.698 | relative viability (NCI-H1792; first compound 0.5 µM): 0.592 | relative viability (NCI-H2405; first compound 0.005 µM): 0.945 | relative viability (NCI-H2405; first compound 0.01581 µM): 0.996 | relative viability (NCI-H2405; first compound 0.05 µM): 0.943 | relative viability (NCI-H2405; first compound 0.1581 µM): 0.89 | relative viability (NCI-H2405; first compound 0.5 µM): 0.897 | relative viability (NCI-H322M; first compound 0.005 µM): 0.942 | relative viability (NCI-H322M; first compound 0.01581 µM): 0.961 | relative viability (NCI-H322M; first compound 0.05 µM): 0.989 | relative viability (NCI-H322M; first compound 0.1581 µM): 0.92 | relative viability (NCI-H322M; first compound 0.5 µM): 0.825 | relative viability (CAL-12T; first compound 0.005 µM): 0.761 | relative viability (CAL-12T; first compound 0.01581 µM): 0.666 | relative viability (CAL-12T; first compound 0.05 µM): 0.717 | relative viability (CAL-12T; first compound 0.1581 µM): 0.713 | relative viability (CAL-12T; first compound 0.5 µM): 0.816 | relative viability (RERF-LC-KJ; first compound 0.005 µM): 0.828 | relative viability (RERF-LC-KJ; first compound 0.01581 µM): 0.855 | relative viability (RERF-LC-KJ; first compound 0.05 µM): 0.901 | relative viability (RERF-LC-KJ; first compound 0.1581 µM): 0.92 | relative viability (RERF-LC-KJ; first compound 0.5 µM): 0.88 | relative viability (NCI-H1793; first compound 0.005 µM): 0.778 | relative viability (NCI-H1793; first compound 0.01581 µM): 0.954 | relative viability (NCI-H1793; first compound 0.05 µM): 0.774 | relative viability (NCI-H1793; first compound 0.5 µM): 1.19 | relative viability (LCLC-97TM1; first compound 0.005 µM): 0.154 | relative viability (LCLC-97TM1; first compound 0.01581 µM): 0.179 | relative viability (LCLC-97TM1; first compound 0.1581 µM): 0.187 | relative viability (LCLC-97TM1; first compound 0.5 µM): 0.178 | relative viability (BEN; first compound 0.005 µM): 0.995 | relative viability (BEN; first compound 0.01581 µM): 0.871 | relative viability (BEN; first compound 0.05 µM): 0.984 | relative viability (BEN; first compound 0.5 µM): 0.912 | relative viability (LCLC-103H; first compound 0.005 µM): 1.01 | relative viability (LCLC-103H; first compound 0.01581 µM): 0.959 | relative viability (LCLC-103H; first compound 0.05 µM): 1.07 | relative viability (LCLC-103H; first compound 0.1581 µM): 1.21 | relative viability (LCLC-103H; first compound 0.5 µM): 1.12 | relative viability (SK-LU-1; first compound 0.005 µM): 0.979 | relative viability (SK-LU-1; first compound 0.01581 µM): 1.08 | relative viability (SK-LU-1; first compound 0.05 µM): 1.34 | relative viability (SK-LU-1; first compound 0.1581 µM): 0.813 | relative viability (SK-LU-1; first compound 0.5 µM): 0.938 | relative viability (NCI-H2087; first compound 0.005 µM): 0.928 | relative viability (NCI-H2087; first compound 0.01581 µM): 0.922 | relative viability (NCI-H2087; first compound 0.05 µM): 0.926 | relative viability (NCI-H2087; first compound 0.1581 µM): 1.04 | relative viability (NCI-H2087; first compound 0.5 µM): 0.81
